Source: ChEMBL document CHEMBL6109156, “Discovery of Dual PD-L1/HDAC3 Inhibitors for Tumor Immunotherapy” (J Med Chem, 2025)
Calls of active or inactive are those of the source. The calls are words filed in the database; no cut-off is given here.

Experiments:
[1] = biological target: T1, Programmed cell death protein 1/Programmed cell death 1 ligand 1 (Homo sapiens) (UniProt Q15116+Q9NZQ7); experiment: (§1) Inhibition of PD-1/PD-L1 (unknown origin) interaction assessed as inhibition rate at 1 uM by HTRF assay relative to control; assay type: protein-complex assay
[2] = biological target: T1, Programmed cell death protein 1/Programmed cell death 1 ligand 1 (Homo sapiens); experiment: Inhibition of PD-1/PD-L1 (unknown origin) interaction assessed as inhibition rate at 0.1 uM by HTRF assay relative to control; assay type: protein-complex assay
Histone deacetylase 3 [3] = biological target: T2, Histone deacetylase 3 (Homo sapiens, UniProt O15379); experiment: Inhibition of human recombinant HDAC3 using Ac-Leu-Gly-Lys (Ac)-AMC as substrate at 1 uM preincubated for 10 mins followed by substrate addition and measured after 45 mins by TECAN microtiter plate reader analysis relative to control; conditions: time 55.0 min
Histone deacetylase 3 [4] = biological target: T2, Histone deacetylase 3; experiment: Inhibition of human recombinant HDAC3 using Ac-Leu-Gly-Lys (Ac)-AMC as substrate at 0.1 uM preincubated for 10 mins followed by substrate addition and measured after 45 mins by TECAN microtiter plate reader analysis relative to control; conditions: time 55.0 min
[5] = biological target: Programmed cell death protein 1/Programmed cell death 1 ligand 1 (Homo sapiens, UniProt Q9NZQ7); experiment: as §1; assay type: protein-complex assay
Histone deacetylase 3 [6] = biological target: T2, Histone deacetylase 3; experiment: Inhibition of human recombinant HDAC3 using Ac-Leu-Gly-Lys (Ac)-AMC as substrate preincubated for 10 mins followed by substrate addition and measured after 45 mins by TECAN microtiter plate reader analysis
Histone deacetylase 1 = Histone deacetylase 1 (Homo sapiens, UniProt Q13547); experiment: Inhibition of human recombinant HDAC1 using Ac-Leu-Gly-Lys (Ac)-AMC as substrate preincubated for 10 mins followed by substrate addition and measured after 45 mins by TECAN microtiter plate reader analysis
[7] = biological target: T3, Protein deacetylase HDAC6 (Homo sapiens, UniProt Q9UBN7); experiment: Inhibition of human recombinant HDAC6 using Ac-Leu-Gly-Lys (Ac)-AMC as substrate preincubated for 10 mins followed by substrate addition and measured after 45 mins by TECAN microtiter plate reader analysis
T3 sequence (Q9UBN7 whole entry): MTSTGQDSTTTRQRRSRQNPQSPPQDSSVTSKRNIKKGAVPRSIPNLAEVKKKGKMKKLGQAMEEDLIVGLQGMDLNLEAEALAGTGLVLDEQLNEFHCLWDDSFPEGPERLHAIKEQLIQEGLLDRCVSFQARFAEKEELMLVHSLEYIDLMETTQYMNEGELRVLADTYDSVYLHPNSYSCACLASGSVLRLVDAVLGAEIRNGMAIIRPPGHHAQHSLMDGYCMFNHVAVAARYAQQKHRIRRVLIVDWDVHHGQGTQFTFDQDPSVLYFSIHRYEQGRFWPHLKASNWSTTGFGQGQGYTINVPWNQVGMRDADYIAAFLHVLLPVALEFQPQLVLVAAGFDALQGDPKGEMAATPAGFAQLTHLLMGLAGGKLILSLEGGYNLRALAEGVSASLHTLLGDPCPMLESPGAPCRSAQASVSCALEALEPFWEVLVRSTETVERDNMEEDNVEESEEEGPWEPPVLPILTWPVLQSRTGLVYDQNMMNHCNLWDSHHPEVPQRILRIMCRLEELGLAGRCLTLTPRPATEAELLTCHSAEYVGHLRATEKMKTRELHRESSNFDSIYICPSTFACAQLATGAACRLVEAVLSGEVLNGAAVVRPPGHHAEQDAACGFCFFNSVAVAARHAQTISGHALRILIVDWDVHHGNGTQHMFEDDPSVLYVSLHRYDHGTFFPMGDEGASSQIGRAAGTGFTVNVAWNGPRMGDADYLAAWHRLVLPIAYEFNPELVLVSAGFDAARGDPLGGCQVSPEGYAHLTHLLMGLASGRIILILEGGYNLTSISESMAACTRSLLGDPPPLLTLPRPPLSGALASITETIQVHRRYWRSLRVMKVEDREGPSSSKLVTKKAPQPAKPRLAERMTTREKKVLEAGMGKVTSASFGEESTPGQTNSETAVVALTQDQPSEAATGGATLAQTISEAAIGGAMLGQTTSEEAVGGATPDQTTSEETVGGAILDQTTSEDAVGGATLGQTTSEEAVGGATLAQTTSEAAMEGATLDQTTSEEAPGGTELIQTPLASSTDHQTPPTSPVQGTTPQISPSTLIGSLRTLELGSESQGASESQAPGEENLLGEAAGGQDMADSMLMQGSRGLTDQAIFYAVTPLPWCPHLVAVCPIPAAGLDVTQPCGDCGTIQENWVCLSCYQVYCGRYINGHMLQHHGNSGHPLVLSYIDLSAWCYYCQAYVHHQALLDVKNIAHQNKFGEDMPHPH

Histone deacetylase 8 = biological target: T4, Histone deacetylase 8 (Homo sapiens, UniProt Q9BY41); experiment: Inhibition of human recombinant HDAC8 using Ac-Leu-Gly-Lys (Tfa)-AMC as substrate preincubated for 10 mins followed by substrate addition and measured after 45 mins by TECAN microtiter plate reader analysis
T4 sequence (Q9BY41 whole entry): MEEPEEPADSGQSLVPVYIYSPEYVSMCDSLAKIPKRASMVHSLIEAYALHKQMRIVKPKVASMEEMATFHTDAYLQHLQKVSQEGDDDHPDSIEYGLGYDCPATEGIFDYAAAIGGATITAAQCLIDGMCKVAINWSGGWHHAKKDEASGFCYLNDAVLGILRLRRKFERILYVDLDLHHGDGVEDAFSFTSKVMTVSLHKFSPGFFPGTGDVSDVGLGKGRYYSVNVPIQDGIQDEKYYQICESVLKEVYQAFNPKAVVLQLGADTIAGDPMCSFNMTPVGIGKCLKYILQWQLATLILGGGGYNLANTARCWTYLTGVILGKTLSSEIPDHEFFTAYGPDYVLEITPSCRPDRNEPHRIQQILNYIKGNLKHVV

B16-F10 = experiment: Antiproliferative activity against mouse B16-F10 cells assessed as cell growth inhibition incubated for 48 hrs by MTT assay; assay type: functional, cell-based; conditions: B16-F10, 48 h
A-375 = experiment: Antiproliferative activity against human A-375 cells assessed as cell growth inhibition incubated for 48 hrs by MTT assay; assay type: functional, cell-based; conditions: A-375, 48 h
HepG2 = experiment: Antiproliferative activity against human HepG2 cells assessed as cell growth inhibition incubated for 48 hrs by MTT assay; assay type: functional, cell-based; conditions: HepG2, 48 h
4T1 = experiment: Antiproliferative activity against mouse 4T1 cells assessed as cell growth inhibition incubated for 48 hrs by MTT assay; assay type: functional, cell-based; conditions: 4T1, 48 h
MDA-MB-231 = experiment: Antiproliferative activity against human MDA-MB-231 cells assessed as cell growth inhibition incubated for 48 hrs by MTT assay; assay type: functional, cell-based; conditions: MDA-MB-231, 48 h
HCT-116 = experiment: Antiproliferative activity against human HCT-116 cells assessed as cell growth inhibition incubated for 48 hrs by MTT assay; assay type: functional, cell-based; conditions: HCT-116, 48 h
[8] = biological target: T5, Histone deacetylase 3 (Mus musculus) (UniProt O88895); experiment: Inhibition of HDAC3 in mouse B16-F10 cells assessed as upregulation of Ac-H3 level at 3 uM incubated for 24 hrs by Western blotting analysis; assay type: cell-based
T5 sequence (whole entry): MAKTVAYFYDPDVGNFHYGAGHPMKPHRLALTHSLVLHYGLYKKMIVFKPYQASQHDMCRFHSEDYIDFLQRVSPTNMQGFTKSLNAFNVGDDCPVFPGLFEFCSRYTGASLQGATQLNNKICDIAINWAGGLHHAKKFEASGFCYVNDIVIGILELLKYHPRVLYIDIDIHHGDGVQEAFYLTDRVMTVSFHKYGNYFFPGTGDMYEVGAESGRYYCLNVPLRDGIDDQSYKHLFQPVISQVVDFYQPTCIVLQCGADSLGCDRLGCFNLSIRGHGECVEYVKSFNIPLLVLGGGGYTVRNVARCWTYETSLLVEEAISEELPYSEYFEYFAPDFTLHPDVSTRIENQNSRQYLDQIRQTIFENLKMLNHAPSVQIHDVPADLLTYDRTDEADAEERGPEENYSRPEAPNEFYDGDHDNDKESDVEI

T2 sequence (O15379 whole entry): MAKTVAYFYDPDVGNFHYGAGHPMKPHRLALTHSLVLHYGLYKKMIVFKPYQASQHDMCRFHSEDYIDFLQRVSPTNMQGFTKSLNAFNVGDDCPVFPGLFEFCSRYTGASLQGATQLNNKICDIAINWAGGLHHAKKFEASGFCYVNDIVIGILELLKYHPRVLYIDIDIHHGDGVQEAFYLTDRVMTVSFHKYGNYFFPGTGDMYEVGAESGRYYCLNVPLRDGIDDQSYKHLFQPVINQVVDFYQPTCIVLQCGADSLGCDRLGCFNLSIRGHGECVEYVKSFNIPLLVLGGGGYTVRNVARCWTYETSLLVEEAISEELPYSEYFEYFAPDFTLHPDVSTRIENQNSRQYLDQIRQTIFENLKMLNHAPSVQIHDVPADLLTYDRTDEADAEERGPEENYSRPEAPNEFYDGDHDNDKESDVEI
Sequence of Programmed cell death protein 1/Programmed cell death 1 ligand 1 (Q15116 whole entry): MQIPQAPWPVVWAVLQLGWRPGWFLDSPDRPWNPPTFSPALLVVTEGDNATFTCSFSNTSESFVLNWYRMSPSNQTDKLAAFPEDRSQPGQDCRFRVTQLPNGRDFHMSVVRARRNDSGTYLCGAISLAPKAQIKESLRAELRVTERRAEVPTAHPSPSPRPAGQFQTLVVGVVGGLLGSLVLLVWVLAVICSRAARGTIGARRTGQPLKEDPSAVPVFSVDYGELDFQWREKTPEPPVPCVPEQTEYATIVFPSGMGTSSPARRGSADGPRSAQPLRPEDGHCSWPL
Sequence of Programmed cell death protein 1/Programmed cell death 1 ligand 1 (Q9NZQ7 whole entry): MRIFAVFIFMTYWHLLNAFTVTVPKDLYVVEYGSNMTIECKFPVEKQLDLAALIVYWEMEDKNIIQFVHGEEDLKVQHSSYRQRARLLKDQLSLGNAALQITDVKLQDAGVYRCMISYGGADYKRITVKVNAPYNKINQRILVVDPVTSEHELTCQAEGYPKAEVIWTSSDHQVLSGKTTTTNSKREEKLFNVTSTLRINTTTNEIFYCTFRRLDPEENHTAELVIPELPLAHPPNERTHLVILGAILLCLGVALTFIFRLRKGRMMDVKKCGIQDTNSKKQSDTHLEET
Sequence of Histone deacetylase 1 (Q13547 whole entry): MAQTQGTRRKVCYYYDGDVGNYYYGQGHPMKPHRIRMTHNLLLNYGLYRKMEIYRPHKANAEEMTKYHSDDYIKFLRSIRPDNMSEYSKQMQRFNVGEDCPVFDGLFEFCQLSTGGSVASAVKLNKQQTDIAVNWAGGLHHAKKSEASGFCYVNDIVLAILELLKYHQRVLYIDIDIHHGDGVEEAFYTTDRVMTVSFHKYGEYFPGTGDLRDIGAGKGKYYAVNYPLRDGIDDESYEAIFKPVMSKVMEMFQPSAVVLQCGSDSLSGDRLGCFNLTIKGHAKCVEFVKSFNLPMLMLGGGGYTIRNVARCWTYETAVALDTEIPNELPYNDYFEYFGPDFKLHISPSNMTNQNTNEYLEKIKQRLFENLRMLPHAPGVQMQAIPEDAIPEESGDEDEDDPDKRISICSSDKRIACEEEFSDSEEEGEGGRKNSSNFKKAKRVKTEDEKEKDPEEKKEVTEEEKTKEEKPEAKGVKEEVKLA

SMILES	inhibition [1]	inhibition [2]	inhibition (Histone deacetylase 3 [3])	inhibition (Histone deacetylase 3 [4])	other results
CCCNNC(=O)c1cnc(N2CC(NCc3ccc(-c4cccc(-c5ccccc5)c4C)nc3OC)C2)nc1	68.2%	17.8%	–	–	–
CCCNNC(=O)c1cnc(NCCNCc2ccc(-c3cccc(-c4ccccc4)c3C)nc2OC)nc1	95.1%	44.5%	< 50%	–	–
CCCNNC(=O)c1cnc(N2CCC(NCc3ccc(-c4cccc(-c5ccccc5)c4C)nc3OC)CC2)cn1	62.6%	7.82%	–	–	–
CCCNNC(=O)c1ccc(C(=O)NCCNCc2ccc(-c3cccc(-c4ccccc4)c3C)nc2OC)cc1	88.1%	23.4%	74.3%	46.8%	–
CCCNNC(=O)c1cnc(NCCNCc2ccc(-c3cccc(-c4ccccc4)c3C)nc2OC)cn1	94.4%	46%	79.7%	40.2%	IC50 [5]: 0.0649 µM; IC50 (Histone deacetylase 3 [6]): 0.168 µM; IC50 (Histone deacetylase 1): 2.15 µM; IC50 [7]: > 10 µM; IC50 (Histone deacetylase 8): > 10 µM; IC50 (B16-F10): 6.93 µM; IC50 (A-375): 10.2 µM; IC50 (HepG2): 7.01 µM; IC50 (4T1): 7.48 µM; IC50 (MDA-MB-231): 13.9 µM; IC50 (HCT-116): 14.7 µM; inhibition [8]: Active
CCCNNC(=O)c1cnc(N2CC(NCc3ccc(-c4cccc(-c5ccccc5)c4C)nc3OC)C2)cn1	54.5%	13.5%	–	–	–
CCCNNC(=O)c1ccc(NCc2ccc(-c3cccc(-c4ccccc4)c3C)nc2OC)c(C)c1	4.65%	-0.25%	–	–	–
CCCNNC(=O)C1CCN(Cc2ccc(-c3cccc(-c4ccccc4)c3C)nc2OC)CC1	82.7%	21.7%	71.3%	33.2%	–
CCCNNC(=O)CCCCNCc1ccc(-c2cccc(-c3ccccc3)c2C)nc1OC	92.5%	54.4%	79.4%	41.9%	IC50 [5]: 0.0716 µM; IC50 (Histone deacetylase 3 [6]): 0.111 µM; IC50 (Histone deacetylase 1): 0.459 µM; IC50 [7]: > 10 µM; IC50 (Histone deacetylase 8): > 10 µM
CCCNNC(=O)c1ccc(CNCc2ccc(-c3cccc(-c4ccccc4)c3C)nc2OC)cc1	42.4%	11.3%	–	–	–
CCCNNC(=O)c1ccc(NCCNCc2ccc(-c3cccc(-c4ccccc4)c3C)nc2OC)cc1	11.1%	4.12%	–	–	–
CCCNNC(=O)c1cnc(NCCCNCc2ccc(-c3cccc(-c4ccccc4)c3C)nc2OC)cn1	80.9%	18.8%	< 50%	–	–
CCCNNC(=O)c1ccc(NCc2ccc(-c3cccc(-c4ccccc4)c3C)nc2OC)cc1	7.61%	1.83%	–	–	–
CCCNNC(=O)c1ccc(NCCNCc2ccc(-c3cccc(-c4ccccc4)c3C)nc2OC)nn1	78.5%	9.3%	69.5%	38.5%	–
CCCNNC(=O)c1cnc(N(C)CCN(C)Cc2ccc(-c3cccc(-c4ccccc4)c3C)nc2OC)nc1	28.8%	5.96%	–	–	–
CCCNNC(=O)c1cnc(N2CCC(NCc3ccc(-c4cccc(-c5ccccc5)c4C)nc3OC)CC2)nc1	71.7%	3.6%	< 50%	–	–
CCCNNC(=O)CC1CCCN(Cc2ccc(-c3cccc(-c4ccccc4)c3C)nc2OC)C1 (stereo not given)	59.1%	4.75%	–	–	–
CCCNNC(=O)CC1CCN(Cc2ccc(-c3cccc(-c4ccccc4)c3C)nc2OC)CC1	89.4%	25.7%	< 50%	–	–
CCCNNC(=O)CNCc1ccc(-c2cccc(-c3ccccc3)c2C)nc1OC	68.9%	19.5%	–	–	–
CCCNNC(=O)CCNCc1ccc(-c2cccc(-c3ccccc3)c2C)nc1OC	92.4%	58.8%	67.2%	36%	–
CCCNNC(=O)CCCCCNCc1ccc(-c2cccc(-c3ccccc3)c2C)nc1OC	92.7%	37.3%	82%	53.6%	IC50 [5]: 0.213 µM; IC50 (Histone deacetylase 3 [6]): 0.106 µM; IC50 (Histone deacetylase 1): 0.535 µM; IC50 [7]: > 10 µM; IC50 (Histone deacetylase 8): > 10 µM
CCCNNC(=O)CCCCCCNCc1ccc(-c2cccc(-c3ccccc3)c2C)nc1OC	89.8%	12.5%	55.8%	–	–
